This is an account of results in patent US11286268B1, “EIF4E-inhibiting compounds and methods” (EFFECTOR THERAPEUTICS, INC., priority 2019, dated 2022).

Each structure is given as a SMILES string. Where two headings read alike, the source gives them in different places. Bounds are passed on as bounds.

The target of one test is recombinant eIF4E (Homo sapiens (Human), UniProt P06730). Briefly: Fluorescence polarization competition assay for eIF4E binding potency. The method in brief:
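Competition of test compound against 20 nM EDA-m^7GDP-ATTO-550 for 75 nM recombinant eIF4E, pre-incubated 5 min, in 20 mM Tris pH 7.5, 100 mM NaCl, 1 mM DTT, 0.02% Tween-20, 1% DMSO. Equilibrated 30 min at room temperature, dark; fluorescence polarization read. IC50 from 8-point, 3-fold dilution series.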
(In general: Fluorescence polarisation rises when a labelled molecule tumbles more slowly, as on binding a larger partner.)

A further test relates to MDA-MB-361 cells. Put plainly: Cell proliferation assay (CELLTITER-GLO). In kind it is cell-based. Conditions: Homo sapiens, 144 h, 6 days of treatment; for IC50: CELLTITER-GLO, % of DMSO control. On the procedure:
MDA-MB-361 cells were maintained in DMEM supplemented with 10% FBS and 1× penicillin/streptomycin solution at […] in a CO2 incubator. For cell proliferation assays, exponentially growing cells were seeded at 2,000 cells per well in 96-well flat bottom white polystyrene plates (ThermoFisher) and cultured overnight. The following day, compound was added in a 9 point 3-fold dilution series starting from a top concentration of 1 or 10 μM (as indicated) together with a DMSO control. The final DMSO concentration in samples was 0.1%.
Cells were incubated for up to 6 […] at 37° C. in a CO2 incubator. Baseline viability of untreated cells was measured on the day of treatment and proliferation was measured after 6 […] of treatment using CELLTITER-GLO® reagent from Promega (Madison, Wis.) according to the manufacturer's instructions. Response to compound was calculated relative to the DMSO control (% of control) using the formula, % of control (DMSO)=[(CTGcells+inhibitor)/(CTGDMSO control)]×100. Data were plotted using Prism (GraphPad software), and IC50 and Emax values were calculated from a 4 parameter, variable slope non-linear regression model. Results are shown below and in FIGS. 1-3.
For orientation: In ATP-based viability assays light output follows the ATP content of the culture.

Setting [1] is: fluorescence polarization competition, 75 nM recombinant eIF4E, 20 nM EDA-m7GDP-ATTO-550, IC50 class, read-out: elF4E FP.
Where [2] appears, read: inhibition of eIF4E/EDA-m7GDP-ATTO-550 binding by 50%, Table 4B calculated values, read-out: IC50.
[3] abbreviates: inhibition of eIF4E/EDA-m7GDP-ATTO-550 binding, calculated IC50 values, Table 4B, read-out: IC50.

Chain of recombinant eIF4E (P06730 whole entry): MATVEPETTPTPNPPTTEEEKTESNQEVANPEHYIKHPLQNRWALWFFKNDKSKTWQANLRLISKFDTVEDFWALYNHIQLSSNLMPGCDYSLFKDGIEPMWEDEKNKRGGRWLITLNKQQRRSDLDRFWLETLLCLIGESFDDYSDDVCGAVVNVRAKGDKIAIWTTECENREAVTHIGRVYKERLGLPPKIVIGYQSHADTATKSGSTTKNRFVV

As to `Cc1cc(-c2cc(Cl)ccc2OCCn2c(C)nc3cc(C(F)(F)F)c(N4CCN(C)CC4)c(C#N)c3c2=O)c2scc(C(=O)O)c2n1` [compound 634, 7-(5-chloro-2-(2-(5-cyano-2-methyl-6-(4-methylpiperazin-1-yl)-4-oxo-7-(trifluoromethyl)quinazolin-3(4H)-yl)ethoxy)phenyl)-5-methylthieno[3,2-b]pyridine-3-carboxylic acid], the IC50 was under 50 nM on recombinant eIF4E (setting [1]), 5.62 nM on recombinant eIF4E (setting [2]) and 3.8 nM in the test on MDA-MB-361 cells.

For `Cc1nc2cnc(N(C)C3CCN(CC(C)(F)F)CC3)c(C#N)c2c(=O)n1CC#Cc1ccc(Cl)cc1-c1ccnc2c(C(=O)O)csc12` [compound 1141, 7-(5-chloro-2-(3-(5-cyano-6-((1-(2,2-difluoropropyl)piperidin-4-yl)(methyl)amino)-2-methyl-4-oxopyrido[3,4-d]pyrimidin-3(4H)-yl)prop-1-yn-1-yl)phenyl)thieno[3,2-b]pyridine-3-carboxylic acid], the IC50 at recombinant eIF4E (setting [1]) was under 50 nM; at recombinant eIF4E (setting [2]) it was 18.9 nM; with MDA-MB-361 cells, 361 nM.

In the case of `Cc1nc2cnc(N(C)C3CCN(C4CC(F)(F)C4)CC3)c(C#N)c2c(=O)n1CC#Cc1ccc(Cl)cc1-c1ccnc2c(C(=O)NS(C)(=O)=O)csc12` [compound 1188, 7-(5-chloro-2-(3-(5-cyano-6-((1-(3,3-difluorocyclobutyl)piperidin-4-yl)(methyl)amino)-2-methyl-4-oxopyrido[3,4-d]pyrimidin-3(4H)-yl)prop-1-yn-1-yl)phenyl)-N-(methylsulfonyl)thieno[3,2-b]pyridine-3-carboxamide], the IC50 on recombinant eIF4E (setting [1]) is under 50 nM; on recombinant eIF4E (setting [2]) it was 12.4 nM; in the test on MDA-MB-361 cells, 46.8 nM. Moreover, in the test on MDA-MB-361 cells (4 parameter non-linear regression), the Emax worked out at 90.2%.

Turning to `Cc1nc2cnc(C3CN(C)CCO3)c(C#N)c2c(=O)n1CCOc1ccc(Cl)cc1-c1ccnc2c(C(=O)O)csc12` (centres unmarked) [compound 1330], the IC50 on recombinant eIF4E (setting [3]) is 13 nM.

As for `Cc1nc2cnc(N(C)C3CCN(CC(F)(F)c4ccn(C)n4)CC3)c(C#N)c2c(=O)n1CC#Cc1ccc(Cl)cc1-c1ccnc2c(C(=O)O)csc12` [compound 1536], the IC50 on recombinant eIF4E (setting [3]) was 18.3 nM.

For `N#Cc1cc(C#N)c2c(=O)n(CCOc3ccc(Cl)cc3-c3cccc(C(=O)O)c3)cnc2c1` [compound 1989], the IC50 at recombinant eIF4E (setting [3]) was 89 nM.

In the case of `Cc1nc2c(N(C)C3CCN(C)C(C(F)F)C3)ncc(C#N)c2c(=O)n1CCOc1ccc(Cl)cc1-c1ccnc2c(C(=O)O)csc12` (centres unmarked) [compound 864], the IC50 is under 50 nM on recombinant eIF4E (setting [1]) and 47.9 nM on recombinant eIF4E (setting [2]).

Take `Cc1nc2cc(C(F)(F)F)cc(C#N)c2c(=O)n1CCOc1ccc(Cl)cc1-c1cc(C(N)=O)nc2c(C(=O)O)csc12` [compound 445]: at recombinant eIF4E (setting [1]), the IC50 is 50 to 1000 nM.

Take `Cc1nc2cc(C(F)(F)F)c(CN3CCN(C)CC3)c(C#N)c2c(=O)n1CCOc1ccc(Cl)cc1-c1ccnc2ccsc12` [compound 1256]: at recombinant eIF4E (setting [3]), the IC50 was 24.7 nM.

For the compound `Cc1c(C(=O)O)ccnc1-c1cc(Cl)ccc1OCCn1cnc2cnc(C#N)cc2c1=O` [compound 115], the IC50 at recombinant eIF4E (setting [1]) is over 1000 nM; on recombinant eIF4E (setting [2]), over 3000 nM.

Consider `Cc1nc2cnc(N3CCN(C4C(C)(C)C4(C)C)CC3)c(C#N)c2c(=O)n1CCOc1ccc(Cl)cc1-c1ccnc2c(C(=O)O)csc12` [compound 1473], for which the IC50 on recombinant eIF4E (setting [3]) was 16.9 nM.

Turning to `CSc1cc(C(=O)O)cc(-c2cc(Cl)ccc2OCCn2cnc3cnc(C#N)cc3c2=O)c1` [compound 95], the IC50 at recombinant eIF4E (setting [1]) was over 1000 nM; at recombinant eIF4E (setting [2]), 2860 nM.

As to `Cc1sc2c(-c3cc(Cl)ccc3OCCn3c(C)nc4cc(C(F)(F)F)c(C5CCNCC5)c(C#N)c4c3=O)ccnc2c1C(=O)O` [compound 887], the IC50 on recombinant eIF4E (setting [1]) is under 50 nM; on recombinant eIF4E (setting [2]), 20.1 nM.

`N#Cc1cncc2ncn(CCOc3ccc(Cl)cc3-c3ccc(C(=O)O)c(CCCCC(O)CO)c3)c(=O)c12` (centres unmarked) [compound 184]: the IC50 on recombinant eIF4E (setting [1]) lay within 50 to 1000 nM.

On to `O=C(O)c1cccc(-c2cc(Cl)ccc2OCCn2cnc3cc(F)cc(F)c3c2=O)c1` [compound 78], for which the IC50 at recombinant eIF4E (setting [1]) was over 1000 nM; at recombinant eIF4E (setting [2]), 1630 nM.

For the compound `Cc1nc2cnc(N(C)C3CCN(C4(C(F)(F)CO)CC4)CC3)c(C#N)c2c(=O)n1CC#Cc1ccc(Cl)cc1-c1ccnc2c(C(=O)O)csc12` [compound 1131], the figures for the IC50 at recombinant eIF4E (setting [1]) and at recombinant eIF4E (setting [2]) were under 50 nM and 14.7 nM, respectively.

On to `COCCC(CCOC)N(C)c1ncc2nc(C)n(CC#Cc3ccc(Cl)cc3-c3ccnc4c(C(=O)O)csc34)c(=O)c2c1C#N` [compound 1505], for which the IC50 at recombinant eIF4E (setting [3]) was 13 nM.

In the case of `CCN(c1ncc2nc(C)n(CC#Cc3ccc(Cl)cc3-c3ccnc4c(C(=O)NS(=O)(=O)c5ccccn5)csc34)c(=O)c2c1C#N)C1CCN(C2COC2)CC1` [compound 1742], the IC50 at recombinant eIF4E (setting [3]) was 5.43 nM.

Turning to `Cc1nc2cc(C(F)(F)F)cc(C#N)c2c(=O)n1CCOc1ccc(Cl)cc1-c1ccnc2c(C(=O)O)cnn12` [compound 661], the results for the IC50 on recombinant eIF4E (setting [1]) and on recombinant eIF4E (setting [2]) were under 50 nM and 12.1 nM, respectively.

Consider `Cc1nc2cc(C(F)(F)F)c(CC3CN(CC(F)F)C3)c(C#N)c2c(=O)n1CCOc1ccc(Cl)cc1-c1ccnc2c(C(=O)O)csc12` [compound 376], for which the IC50 is under 50 nM at recombinant eIF4E (setting [1]) and 12.7 nM at recombinant eIF4E (setting [2]).

Turning to `Cc1cc(-c2cc(Cl)ccc2OCCn2c(C)nc3cnc(C(C)C)c(C#N)c3c2=O)c2scc(C(=O)O)c2n1` [compound 432], the IC50 is under 50 nM at recombinant eIF4E (setting [1]) and 25.8 nM at recombinant eIF4E (setting [2]).

For the compound `Cc1nc2c(-c3cncnc3)ccc(C#N)c2c(=O)n1CCOc1ccc(Cl)cc1-c1ccnc2c(C(=O)O)csc12` [compound 204], the IC50 was under 50 nM at recombinant eIF4E (setting [1]) and 44.4 nM at recombinant eIF4E (setting [2]).

On to `Cc1nc2cnc(N(C)C3CCN(C4(C#N)CC4)CC3)c(C#N)c2c(=O)n1CC#Cc1ccc(Cl)cc1-c1ccnc2c(C(=O)O)csc12` [compound 1494], for which the IC50 at recombinant eIF4E (setting [3]) is 24.7 nM.

Regarding `Cc1cc(-c2cc(Cl)ccc2OCCn2c(C)nc3cc(C(F)(F)F)c(-c4ccncn4)nc3c2=O)c2scc(C(=O)O)c2n1` [compound 767], the IC50 at recombinant eIF4E (setting [1]) was under 50 nM; at recombinant eIF4E (setting [2]), 7.51 nM.

As for `Cc1nc2c(Cl)cc(Cl)c(C#N)c2c(=O)n1CCOc1ccc(Cl)cc1-c1ccnc2c(C(=O)O)csc12` [compound 209], the IC50 on recombinant eIF4E (setting [1]) is under 50 nM; at recombinant eIF4E (setting [2]), 47 nM.
